Measured values published in patent publication US9809640B2, “ApoE peptide dimers and uses thereof” (priority 2010, dated 2017).
Where two headings read alike, the source gives them in different places. Non-standard residues stand in square brackets, D forms with d. Residues, ends and D or L forms follow the SMILES beside them. Arg(NO2) = N=C(NCCC[C@H](N)C(=O)O)N[N+](=O)[O-]; Aib = CC(C)(N)C(=O)O

Key:
BV2 microglia cells [1] = settings: previously shown; cited from earlier work
BV2 microglia cells [2] = experiment: LPS-induced nitric oxide production in BV2 microglia cells; assay type: cell-based; settings: for EC50: 50% suppression of nitric oxide release from BV2 cells following LPS stimulation
Procedure: FIG. 1. COG 112 inhibits LPS-induced production of inflammatory cytokines in BV2 microglia cells. Inhibition curves for COG112 in the production of NO (green squares), TNFα (red diamonds), and IL-6 (blue triangles) by BV2 microglia. Compounds were added to the final concentrations indicated on the graph along with 100 ng/mL of LPS. After 24 hours the media was removed and assayed by two-site ELISA (BioSource) and quantitated relative to a standard curve on the same plate.
FIG. 3. NO Inhibition curve for COG449. BV2 microglia were treated with COG449 at the final concentrations indicated on the graph, along with 100 ng/mL of LPS. After 24 hours the media was removed and assayed by two-site ELISA (BioSource) and quantitated relative to a standard curve on the same plate.
(§1) We also evaluated the various peptides for efficacy in suppressing nitric oxide production induced by LPS stimulation of BV2 microglia cells as a measure of anti-inflammatory activity as well as the maximum dose tolerated in mice (Table I and FIG. 6A). For the LPS assay, EC50 is the concentration of compound that caused a 50% suppression of nitric oxide release from BV2 cells following LPS stimulation. For mouse toxicity, MTD is the maximum dose of the compound that can be given by intravenous injection without causing deaths after 24 hrs. […] Coupling the ApoE domain to a protein transduction domain further enhanced the potency of the dimers.
Low passage BV2 microglial cell cultures are maintained in 10% HI (Heat Inactivated) FBS DMEM media (supplemented with MEM NEAA (Non-Essential Amino Acids), sodium pyruvate and Pen-Strep) and continuously cultured until needed. To determine the IC50 values for NO production, peptides are added to BV2 cultures in 1% HI FBS DMEM media (supplemented with MEM NEAA and sodium pyruvate) at a range of final assay concentrations from 1.0 μM in 2 fold dilutions to 7.8 nM followed immediately by addition of LPS (100 ng/mL final concentration) as previously described (Laskowitz et al. (2001) Exp Neurol, Vol. 167(1): 74-85). After incubating for 18±1 hours, conditioned media is removed for analysis of nitrite (the stable oxidation product of released nitric oxide) by the Griess colorimetric assay (Promega). Remaining cells are assayed for viability in an MTT assay (Promega) and the nitrite assay values are normalized for each concentration using the percent viability of cells in the MTT assay. […] Typically, the absence of LPS exposure to BV2 cells results in levels below the limit of detection in our assays. Similarly, addition of any of the peptides up to 25 μM without LPS results in undetectable NO levels.

B-CLL cells = experiment: Cytotoxicity on patient-derived B-CLL cells (MTS assay); settings: for Fold Change: CLL EC50 relative to COG056 (rev133) = 1.0
Excerpt: FIG. 5A: Dose response curves for COG449 cytotoxicity on CLL cells from 4 leukemia patients. Human CLL cells were isolated from blood samples and assayed for COG449 cytotoxicity. […] FIG. 5B: Dose response curves for COG445 on CLL cells from 7 patients or normal B-cells from 5 patients. Human CLL cells and PBMC were isolated and assayed for cytotoxicity of COG445.
Blood from CLL patients was collected and CD5+/CD19+ CLL cells were isolated using the RosetteSep™ Human B-Cell Enrichment Cocktail, according to the manufacturer's instructions, and treated with COG compounds. Compounds were applied to B-CLL cells (2.5×10^5 cells/well in a 96 well plate), after which the cells were treated for 72 hours.
Normal B-cells from volunteers and B-CLL cells from patients are isolated using the RosetteSep™ Human B Cell Enrichment Cocktail according to the manufacturer's instructions. This method depletes whole blood of T cells, monocytes, and NK cells using a proprietary antibody cocktail that cross-links unwanted cells in human whole blood to multiple red blood cells (RBCs) forming immunorosettes. This increases the density of the unwanted (rosetted) cells, such that they pellet along with the free RBCs when centrifuged over a buoyant density medium such as Ficoll-Paque®. This leaves the highly enriched B-cell or B-CLL cells at the interface between Ficoll and the plasma. The antibodies in the cocktail contain […] and anti-CD16 antibodies to remove T cells, monocytes, and NK cells, respectively. The purity of these B-cell and B-CLL preparations is then determined by flow cytometry.
For cytotoxicity assays, 3×10^6 CLL cells/well are cultured in 24 well tissue culture plates in 1.5 mL of Hybridoma SFM™ (Gibco, Long Island, N.Y.) as described by Levesque et al. (2001, 2003). All cultures are incubated at 37° C., 5% CO2 in air.

normal B-cells = experiment: Cytotoxicity on normal B-cells from volunteers; assay type: cell-based, human; settings: normal B-cells from volunteers
Excerpt: Normal B-cells from volunteers and B-CLL cells from patients are isolated using the RosetteSep™ Human B Cell Enrichment Cocktail according to the manufacturer's instructions. This method depletes whole blood of T cells, monocytes, and NK cells using a proprietary antibody cocktail that cross-links unwanted cells in human whole blood to multiple red blood cells (RBCs) forming immunorosettes. This increases the density of the unwanted (rosetted) cells, such that they pellet along with the free RBCs when centrifuged over a buoyant density medium such as Ficoll-Paque®. This leaves the highly enriched B-cell or B-CLL cells at the interface between Ficoll and the plasma. The antibodies in the cocktail contain anti-CD14, anti-CD2 and anti-CD16 antibodies to remove T cells, monocytes, and NK cells, respectively. The purity of these B-cell and B-CLL preparations is then determined by flow cytometry. Preparations typically average less than 2% CD3+ T-cells and less than 0.5% CD14+ monocytes. In the case of B-CLL cell isolation, we routinely obtain preparations that contain less than 1.5% normal CD19+/CD5− B-cells using this method.

[3] = Mouse toxicity, maximum tolerated dose by intravenous injection; settings: in vivo, maximum dose by intravenous injection without deaths after 24 hrs
Excerpt: as §1

[4] = Pharmacokinetics of subcutaneously injected COG1410; settings: plasma, sc
Procedure: Male C57Bl/6 mice (20-24 g, Charles River, Raleigh, N.C.) are injected with a peptide dimer subcutaneously at a volume of 5 mL/kg in the scruff of the neck. Ten minutes before the desired timepoint, mice are anesthetized and at the desired timepoint blood is drawn by cardiac puncture. Blood from at least 4 mice is used for each timepoint with the samples collected at 5, 10, 15, 30, 45, 60, 90, 120, 180 and 240 minutes for the initial analysis. The samples are processed and the pharmacokinetic analysis is completed. […] In the event that the half life has not been reached, a repeat of the experiment is performed that uses one timepoint before the observed Tmax, a timepoint at the observed Tmax and timepoints extending long enough to adequately determine the half life based on extrapolation of the previous observations of clearance from the plasma. Analysis of three concentrations of the peptide dimer is also performed to determine if there is a dose dependent effect on the pharmacokinetic parameters.

BV2 cells = experiment: LD50 of COG112 (safety window versus suppression in BV2 cells); assay type: cell-based
Procedure: We have previously shown that the addition of a protein transduction domain (PTD), such as an antennapedia peptide, to the apoE-mimetic COG133 peptide (LRVRLASHLRKLRKRLL (SEQ ID NO: 3)) enhances its anti-inflammatory activity. A series of fusion peptides with COG133 conjugated to a PTD were prepared by chemical synthesis.

IL-6 = experiment: LPS-induced IL-6 production in BV2 microglia; assay type: cell-based; settings: BV2 cells
Procedure: (§2) FIG. 1. […] Compounds were added to the final concentrations indicated on the graph along with 100 ng/mL of LPS. After 24 hours the media was removed and assayed by two-site ELISA (BioSource) and quantitated relative to a standard curve on the same plate.
(§3) A series of fusion peptides with COG133 conjugated to a PTD were prepared by chemical synthesis.

TNFα = experiment: LPS-induced TNFα production in BV2 microglia; assay type: cell-based; settings: BV2 cells
Procedure: as §2, §3

[5] = read-out: CLL EC50, B-CLL cells from patients, 72 hours, MTS assay

**Q.** With `CC(=O)N[C@@H](CC(C)C)C(=O)N[C@@H](CCCNC(=N)N)C(=O)N[C@H](C(=O)N[C@@H](CCCNC(=N)N)C(=O)N[C@@H](CC(C)C)C(=O)N[C@@H](C)C(=O)N[C@@H](CO)C(=O)NC(C)(C)C(=O)N[C@@H](CC(C)C)C(=O)N[C@@H](CCCCN)C(=O)N[C@@H](CCCNC(=N)N)C(=O)N[C@@H](CC(C)C)C(=O)N[C@@H](CCCNC(=N)N)C(=O)N[C@@H](CCCCN)C(=O)N[C@@H](CCCNC(=N)N[N+](=O)[O-])C(=O)N[C@@H](CC(C)C)C(=O)N[C@@H](CC(C)C)C(N)=O)C(C)C` [COG248, LRVRLAS(Aib)LKRLRK(nitroR)LL (SEQ ID NO: 4)] (Ac-LRVRLAS[Aib]LKRLRK[Arg(NO2)]LL-NH2) as the compound, how does the “anti-inflammatory activity relative to COG133 in NO release assays” value (BV2 microglia cells [1]) read?
**A.** improved anti-inflammatory activity

**Q.** What about the EC50 (BV2 microglia cells [2]) of the same compound?
**A.** 900 nM

**Q.** What about the “Fold Change” value (B-CLL cells) of the same compound?
**A.** 5.5

**Q.** And the EC50 (B-CLL cells; [5])?
**A.** 2300 nM

**Q.** What does the source list for `CC(=O)N[C@@H](C)C(=O)N[C@@H](CO)C(=O)NC(C)(C)C(=O)N[C@@H](CC(C)C)C(=O)N[C@@H](CCCNC(=N)N)C(=O)N[C@@H](CCCCN)C(=O)N[C@@H](CC(C)C)C(=O)NC(C)(C)C(=O)N[C@@H](CCCCN)C(=O)N[C@@H](CCCNC(=N)N)C(=O)N[C@@H](CC(C)C)C(=O)N[C@@H](CC(C)C)C(N)=O` [COG1410, AS(Aib)LRKL(Aib)KRLL (SEQ ID NO: 5)] (Ac-AS[Aib]LRKL[Aib]KRLL-NH2; N-terminus and C-terminus assumed)?
**A.** EC50 (normal B-cells): > 20000 nM; EC50 (B-CLL cells; read-out: EC50 anti-CLL cytotoxic activity, B-CLL cells): 5700 nM; MTD at 24 h [3]: 15 mg/kg; Tmax [4]: 20 to 30 min; half-life [4]: 60 to 90 min

**Q.** For “Ac-RQIKIWFQNRRMKWKKCLRVRLASHLRKLRKRLL-NH2 [COG112, RQIKIWFQNRRMKWKK-C-LRVRLASHLRKLRKRLL (SEQ ID NO: 1)]”, which LD50 (BV2 cells) is on record?
**A.** 7 µM

**Q.** What about the “safety window, LD50 versus effective suppression concentrations” value (BV2 cells; versus 12-58 nM) of the same compound?
**A.** > 120 fold

**Q.** And the IC50 (IL-6)?
**A.** 12 nM

**Q.** What about the EC50 (BV2 microglia cells [2]) of the same compound?
**A.** < 1000 nM

**Q.** And the IC50 (BV2 microglia cells [2]; BV2 cells, LPS 100 ng/mL, read-out: IC50 for NO production/release)?
**A.** 21 nM

**Q.** And the EC50 (normal B-cells)?
**A.** > 20000 nM

**Q.** And the “Fold Change” value (B-CLL cells)?
**A.** 9.2

**Q.** And the EC50 (B-CLL cells; [5])?
**A.** 1400 nM

**Q.** What about the IC50 (TNFα) of the same compound?
**A.** 58 nM

**Q.** And the MTD at 24 h [3]?
**A.** 28 mg/kg
